{
  "source": "patent US8163753B2",
  "about": "“2,3-dihydro-6-nitroimidazo (2,1-b) oxazole compounds for the treatment of tuberculosis” (priority 2003, dated 2012)",
  "key": {"M. tuberculosis Kurono": {"tested_on": "M. tuberculosis Kurono", "experiment": "Antibacterial test, agar-plate dilution method (minimum inhibitory concentration), Test Example 2", "type": "cell-based", "conditions": "7H11 agar medium, 37° C. for 14 days; for MIC: Mycobacterium tuberculosis, 336 h"}, "[1]": {"tested_on": "Mycobacterium tuberculosis (H37Rv strain)", "conditions": "in vitro, literature report; cited from earlier work"}, "M. avium": {"tested_on": "M. avium", "conditions": "used at 250 μg/ml or less; cited from earlier work"}, "M. intracellulare": {"tested_on": "M. intracellulare", "conditions": "used at 250 μg/ml or less; cited from earlier work"}, "M. fortuitum": {"tested_on": "M. fortuitum", "conditions": "used at 250 μg/ml or less; cited from earlier work"}},
  "data": [
    {"smiles": "C[C@]1(COc2ccc3nc(N4CCN(Cc5ccc(OC(F)(F)F)cc5)CC4)sc3c2)Cn2cc([N+](=O)[O-])nc2O1", "note": "[Example 1, (R)-2-methyl-6-nitro-2-(2-(4-(4-trifluoromethoxybenzyl)-piperazine-1-yl)benzothiazole-6-yloxymethyl)-2,3-dihydroimidazo[2,1-b]oxazole]", "values": [
      {"measurement": "MIC", "setting": "M. tuberculosis Kurono", "result": 0.2, "unit": "mg/L"},
      {"measurement": "melting point", "result": "205.6 to 207.4", "unit": "°C"}
    ]},
    {"smiles": "CCC1Cn2cc([N+](=O)[O-])nc2O1", "note": "(stereo not drawn) [CGI-17341]", "values": [
      {"measurement": "bactericidal action to Mycobacterium tuberculosis (H37Rv strain)", "setting": "[1]", "result": "has a bactericidal action"},
      {"measurement": "activity to M. avium", "setting": "M. avium", "result": "does not have the activity"},
      {"measurement": "activity to M. intracellulare", "setting": "M. intracellulare", "result": "does not have the activity"},
      {"measurement": "activity to M. fortuitum", "setting": "M. fortuitum", "result": "does not have the activity"}
    ]},
    {"smiles": "C[C@]1(COc2ccc(N3CCN(CCOc4ccc(OC(F)(F)F)cc4)CC3)cc2)Cn2cc([N+](=O)[O-])nc2O1", "note": "[Example 9, (R)-2-methyl-6-nitro-2-(4-(4-(2-(4-trifluoromethoxyphenoxy)ethyl)piperazine-1-yl)phenoxymethyl)-2,3-dihydroimidazo[2,1-b]oxazole]", "values": [
      {"measurement": "MIC", "setting": "M. tuberculosis Kurono", "result": 0.012, "unit": "mg/L"}
    ]},
    {"smiles": "C[C@]1(COc2ccc(N3CCC(CC=Cc4ccc(C(F)(F)F)cc4)CC3)cc2)Cn2cc([N+](=O)[O-])nc2O1", "note": "[Example 8, (R)-2-methyl-6-nitro-2-(4-(4-(3-(4-trifluoromethyphenyl)-2-propenyl)piperidine-1-yl)phenoxymethyl)-2,3-dihydroimidazo[2,1-b]oxazole]", "values": [
      {"measurement": "Minimum Inhibitory Concentration", "setting": "M. tuberculosis Kurono", "result": 0.006, "unit": "µg/mL"}
    ]},
    {"smiles": "CN(c1ccc(OC(F)(F)F)cc1)C1CCN(C2CCN(c3ccc(OC[C@@]4(C)Cn5cc([N+](=O)[O-])nc5O4)cc3)CC2)CC1", "values": [
      {"measurement": "melting point", "result": "196 to 197", "unit": "°C"}
    ]},
    {"smiles": "C[C@]1(COc2ccc3nc(N4CCC(Cc5ccc(OC(F)(F)F)cc5)CC4)ccc3c2)Cn2cc([N+](=O)[O-])nc2O1", "values": [
      {"measurement": "melting point", "result": "184.9 to 185.9", "unit": "°C"}
    ]},
    {"smiles": "CN(Cc1ccc(C(F)(F)F)cc1F)C1CCN(c2ccc(OC[C@@]3(C)Cn4cc([N+](=O)[O-])nc4O3)cc2)CC1", "values": [
      {"measurement": "melting point", "result": "197.5 to 199.2", "unit": "°C"}
    ]},
    {"smiles": "C[C@]1(COc2ccc(C3CCN(Cc4csc(-c5ccc(C(F)(F)F)cc5)n4)CC3)cc2)Cn2cc([N+](=O)[O-])nc2O1", "values": [
      {"measurement": "melting point", "result": "194.6 to 196.4", "unit": "°C"}
    ]},
    {"smiles": "C[C@]1(COc2ccc(N3CCC(OCc4ccc(OC(F)(F)F)cc4)CC3)cc2)Cn2cc([N+](=O)[O-])nc2O1", "values": [
      {"measurement": "melting point", "result": "214.3 to 217.7", "unit": "°C"}
    ]},
    {"smiles": "C[C@]1(COc2ccc(N3CCC(OCC=Cc4ccc(OC(F)(F)F)cc4)CC3)cc2)Cn2cc([N+](=O)[O-])nc2O1", "values": [
      {"measurement": "melting point", "result": "213.7 to 217.4", "unit": "°C"}
    ]},
    {"smiles": "C[C@]1(COc2ccc(N3CCC(CCOCc4ccc(Cl)cc4)CC3)cc2)Cn2cc([N+](=O)[O-])nc2O1", "values": [
      {"measurement": "melting point", "result": "197.6 to 198.2", "unit": "°C"}
    ]}
  ]
}
